Laboratory results from patent publication US20090318493A1 (Roche Palo Alto LLC, priority 2008, published 2009).
Where two headings read alike, the source gives them in different places.

Assays:
Assay type in all cases: binding
hSERT transporter = biological target: T1, hSERT transporter (Homo sapiens, UniProt P31645); test: Human serotonin transporter (hSERT) scintillation proximity assay, competition with [3H]-Citalopram
T1 construct: expressed in transfected cells; membranes prepared
Description: Screening for Human Serotonin Transporter (hSERT) Antagonists Using a Scintillation Proximity Assay (SPA)
The screening assay of this example was used to determine the affinity of ligands at the hSERT transporter by competition with [^3H]-Citalopram.
Scintillation Proximity Assay (SPA) works by bringing radioligand within close proximity to the bead's scintillant to stimulate light emission. In this assay, the receptor-containing membranes were pre-coupled to the SPA beads and the binding of the appropriate radioligand to the transporter was measured. The light emission was proportional to the amount of bound radioligand. Unbound radioligand produced no signal as a result of distant proximity to scintillant (lack of energy transfer).
Cells are released from culture flasks using PBS for 1-2 minutes. The cells were subsequently centrifuged at 1000 g's for 5 minutes and resuspended in PBS prior to being used in the membrane preparation.
(§1) Cell membranes were prepared using a membrane preparation buffer of 50 mM TRIS (pH 7.4). Cell membranes were prepared from a single cube (7.5×10^9 cells total). Cells were homogenized using a Polytron (setting medium for a 4 second burst). The homogenate was then centrifuged at 48,000×g for 15 minutes, the supernatant subsequently removed and discarded, and the pellet resuspended with fresh buffer. After a second centrifugation, the pellet was re-homogenized and brought to a final volume determined during the assay. Typically, membrane portions were aliquoted in 3 mg/ml (w:v). and stored at −80° C.
Compounds of the invention were diluted from 10 mM to 0.1 nM FAC (10 point curves, whole log/half log dilutions) via a Beckman Biomek 2000 using a serial dilution protocol. The test compounds were then transferred (20 μl/well) and the [^3H]-Citalopram radioligand was added at 50 μl/well. Membrane and beads were prepared to a ratio of 10 μg: 0.7 mg, with 0.7 mg PVT-WGA Amersham beads (Cat# RPQ0282V) added per well. 130 μl of the membrane: bead mixture was added to the assay plate.
The % inhibition was calculated for each compound tested [(Compound counts per minute (CPM) at maximum concentration-Non-Specific CPM)/Total CPM*100].
(§2) where max=total binding, min=non specific binding, x=concentration (M) of the tested compound and n=Hill slope. The inhibition dissociation constant (Ki) of each compound was determined according to the method of Cheng-Prusoff and then converted into negative logarithm (pKi) of the Ki.

hDAT = biological target: T2, hDAT (Homo sapiens, UniProt Q01959); test: Human dopamine transporter scintillation proximity assay, competition with [3H]-Vanoxerine
T2 construct: expressed in transfected cells; plated whole cells
T2 sequence (Q01959 whole entry): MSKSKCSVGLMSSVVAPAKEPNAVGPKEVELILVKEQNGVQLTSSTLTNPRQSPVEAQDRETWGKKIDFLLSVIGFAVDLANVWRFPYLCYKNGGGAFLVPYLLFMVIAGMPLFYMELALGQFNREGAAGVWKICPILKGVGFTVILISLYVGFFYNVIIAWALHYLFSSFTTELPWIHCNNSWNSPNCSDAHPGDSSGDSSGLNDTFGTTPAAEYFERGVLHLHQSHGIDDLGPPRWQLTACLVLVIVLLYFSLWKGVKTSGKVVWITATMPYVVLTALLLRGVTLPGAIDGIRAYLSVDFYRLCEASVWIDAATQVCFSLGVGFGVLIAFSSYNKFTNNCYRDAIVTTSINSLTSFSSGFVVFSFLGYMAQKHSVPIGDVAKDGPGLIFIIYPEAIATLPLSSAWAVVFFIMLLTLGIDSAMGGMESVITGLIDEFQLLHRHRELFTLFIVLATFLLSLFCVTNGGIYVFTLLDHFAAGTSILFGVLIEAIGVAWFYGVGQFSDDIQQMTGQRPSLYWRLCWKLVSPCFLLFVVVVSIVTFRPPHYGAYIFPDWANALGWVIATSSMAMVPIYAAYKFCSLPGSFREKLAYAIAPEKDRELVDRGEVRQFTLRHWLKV
Method: This assay was used to determine the affinity of ligands for the dopamine transporter by competition with [^3H]-Vanoxerine.
Cells were plated four hours prior to experiment by placing approximately 30,000 cells per well (in PBS) on white, opaque Cell-Tak coated 96 well plates. Extra buffer was apriated from the cell plates using an ELx405 plate washer.
Compounds of the invention were diluted from 10 mM to 0.1 nM FAC (10 point curves, whole log/half log dilutions) via a Beckman Biomek 2000 using a 10-point dilution protocol. The mixtures were allowed to stand at room temperature for 30 minutes, and were then counted on a Packard TopCount LCS, a generic SPA counting protocol settings, Count Time (min.): 0.40, Background Subtract: none, Half-Life Correction: none, Quench Indicator: tSIS, Platemap blank subtraction: none, Cross talk reduction: Off).
The % inhibition was calculated for each compound tested [(Compound CPM at maximum concentration-Non-Specific CPM)/Total CPM*100].
as §2

hNET transporter = biological target: T3, hNET transporter (Homo sapiens, UniProt P23975); test: Human norepinephrine transporter (hNET) scintillation proximity assay, competition with [3H]-Nisoxetine
T3 construct: expressed in transfected cells; membranes prepared
T3 sequence (P23975 whole entry): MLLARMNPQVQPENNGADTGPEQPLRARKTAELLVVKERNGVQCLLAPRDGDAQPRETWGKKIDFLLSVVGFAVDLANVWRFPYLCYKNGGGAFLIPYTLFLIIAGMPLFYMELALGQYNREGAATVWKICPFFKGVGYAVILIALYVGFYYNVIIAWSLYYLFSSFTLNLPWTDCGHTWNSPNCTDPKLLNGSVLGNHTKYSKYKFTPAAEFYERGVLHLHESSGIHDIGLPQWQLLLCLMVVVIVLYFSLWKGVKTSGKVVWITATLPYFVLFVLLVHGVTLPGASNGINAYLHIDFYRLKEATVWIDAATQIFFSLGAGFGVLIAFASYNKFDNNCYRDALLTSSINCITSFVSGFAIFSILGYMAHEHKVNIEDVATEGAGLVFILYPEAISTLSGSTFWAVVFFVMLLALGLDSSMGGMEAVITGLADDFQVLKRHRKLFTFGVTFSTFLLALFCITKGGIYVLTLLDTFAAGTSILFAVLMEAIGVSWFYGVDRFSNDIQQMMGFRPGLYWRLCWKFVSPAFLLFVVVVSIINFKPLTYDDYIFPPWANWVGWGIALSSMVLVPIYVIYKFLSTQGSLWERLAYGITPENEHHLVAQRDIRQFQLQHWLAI
Method: This assay was used to determine the affinity of ligands for the hNET transporter by competition with [^3H]-Nisoxetine. As in the hSERT assay of the above example, receptor-containing membranes were pre-coupled to the SPA beads and the binding of the appropriate radioligand to the transporter was measured. The light emission was proportional to the amount of bound radioligand, with unbound radioligand producing no signal.
HEK-293 cells (Tatsumi et al., Eur. J. Pharmacol. 1997, 30, 249-258) stably expressing recombinant hNET (Clone: HEK-hNET #2) were maintained with media (DMEM hi glucose with 10% FBS, 300 μg/ml G418 and 2 mM L-Glutamine) and incubated at 37° C. with 5% CO2. Cells were released from culture flasks using PBS for 1-2 minutes. The cells were subsequently centrifuged at 1000 g's for 5 minutes and resuspended in PBS prior to being used in the membrane preparation.
as §1, with “(7.5×10^9cells” for “(7.5×10^9 cells”, “3-6 mg/mil” for “3 mg/ml”
^3[H] […] Compounds of the invention were diluted from 10 mM to 0.1 nM FAC (10 point curves, whole log /half log dilutions) via a Beckman Biomek 2000 using a serial dilution protocol. The test compounds were then transferred (20 μl/well) and the radioligand was added at 50 μl/well. Membrane and beads were prepared to a ratio of 10 μg: 0.7 mg, with 0.7 mg PVT-WGA Amersham beads (Cat# RPQ0282V) added per well. 130 μl of the membrane: bead mixture was added to the assay plate. The mixtures were allowed to stand at room temperature for one hour, and were then counted on a Packard TopCount LCS, a generic SPA counting protocol settings (Energy Range: Low, Efficiency Mode: Normal, Region A: 1.50-35.00, Region B: 1.50-256.00, Count Time (min.): 0.40, Background Subtract: none, Half-Life Correction: no, Quench Indicator: tSIS, Platemap blank subtraction: No, Cross talk reduction: Off).
The % inhibition was calculated for each compound tested [(Compound CPM at maximum concentration-Non-Specific CPM)/Total CPM*100]. The concentration producing 50% inhibition (IC50) was determined using an iterative non-linear curve fitting technique with Activity Base/Xlfit using the following equation:
as §2

[1] = Table 1, read-out: pIC50 NET (converted)
[2] = Table 1, read-out: pIC50 DAT (converted)
[3] = Table 1, read-out: pIC50 SERT (converted)

T1 sequence (P31645 whole entry): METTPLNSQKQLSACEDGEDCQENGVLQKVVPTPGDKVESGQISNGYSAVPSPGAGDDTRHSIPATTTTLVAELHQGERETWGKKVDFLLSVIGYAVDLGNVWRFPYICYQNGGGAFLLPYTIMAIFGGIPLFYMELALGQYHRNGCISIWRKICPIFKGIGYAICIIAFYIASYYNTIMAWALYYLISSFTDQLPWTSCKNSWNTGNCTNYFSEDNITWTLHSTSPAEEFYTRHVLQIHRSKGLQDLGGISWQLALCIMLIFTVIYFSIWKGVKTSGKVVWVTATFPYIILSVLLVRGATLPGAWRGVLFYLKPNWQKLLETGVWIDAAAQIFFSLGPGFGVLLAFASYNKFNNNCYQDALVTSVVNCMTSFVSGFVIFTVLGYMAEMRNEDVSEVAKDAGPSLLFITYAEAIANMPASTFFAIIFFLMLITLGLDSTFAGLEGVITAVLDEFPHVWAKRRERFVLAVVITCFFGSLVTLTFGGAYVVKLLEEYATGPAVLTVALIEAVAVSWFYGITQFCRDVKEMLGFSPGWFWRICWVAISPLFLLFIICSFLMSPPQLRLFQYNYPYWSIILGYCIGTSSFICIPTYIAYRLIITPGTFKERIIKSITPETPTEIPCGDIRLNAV

Row | Compound | IC50 (hSERT transporter) | IC50 (hDAT) | IC50 (hNET transporter; [1]) | IC50 (hDAT; [2]) | also measured
1 | CCCC[C@@]1(C(=O)c2ccc(Cl)c(Cl)c2)CC[C@@H]2CC[C@H]1N2C (mixture of isomers) [Compound 54, ((1R,2R,SR)-2-Butyl-8-methyl-8-aza-bicyclo[3.2.1]oct-2-yl)-(3,4-dichloro-phenyl)-methanone] | 331 nM | 28.2 nM | 501 nM | – | –
2 | CC(C)CC1(C(=O)c2cc(F)c(N)c(Cl)c2)CCNC1 (stereo in doubt) [Compound 24, (4-Amino-3-chloro-5-fluoro-phenyl)-((R)-3-isobutyl-pyrrolidin-3-yl)-methanone] | 24.5 nM | 25.1 nM | 20 nM | – | –
3 | CCCC1(C(=O)c2ccc(Cl)c(Oc3ccccc3)c2)CCNC1 (stereo in doubt) [Compound 29, (4-Chloro-3-phenoxy-phenyl)-((S)-3-propyl-pyrrolidin-3-yl)-methanone] | 13.2 nM | 10.5 nM | 2.63 nM | – | –
4 | CCCC1(C(=O)c2ccc(Cl)c(Oc3ccccc3)c2)CCNC1 (stereo in doubt) [Compound 30, (4-Chloro-3-phenoxy-phenyl)-((R)-3-propyl-pyrrolidin-3-yl)-methanone] | 18.6 nM | 2.34 nM | 24 nM | – | –
5 | Cc1cc(C(=O)C2(CCC(C)(C)C)CCNC2)ccc1Cl (stereo not shown) [Compound 1, (4-Chloro-3-methyl-phenyl)-[3-(3,3-dimethyl-butyl)-pyrrolidin-3-yl]-methanone] | 1.51 nM | 6.31 nM | 5.5 nM | – | –
6 | CC(C)C[C@@]1(C(=O)c2ccc(Cl)c(Cl)c2N)CCNC1 [Compound 2, (2-Amino-3,4-dichloro-phenyl)-((R)-3-isobutyl-pyrrolidin-3-yl)-methanone] | 2.19 nM | – | – | 692 nM | IC50 (hNET transporter): 38 nM
7 | CCCC[C@]1(C(=O)c2ccc(Cl)c(Cl)c2N)CC2CC[C@H]1N2 [Compound 3] | 83.2 nM | 70.8 nM | 182 nM | – | –
8 | CC(C)(C)CCOc1cc(C(=O)C2(CCC(C)(C)C)CCNC2)ccc1Cl (stereo not shown) [Compound 4, [4-Chloro-3-(3,3-dimethyl-butoxy)-phenyl]-[3-(3,3-dimethyl-butyl)-pyrrolidin-3-yl]-methanone] | – | – | 912 nM | 1000 nM | IC50 (hSERT transporter; [3]): 85.1 nM
9 | CC(C)(C)CCC1(C(=O)c2ccc(Cl)c(OCc3ccccc3)c2)CCNC1 (stereo not shown) [Compound 5, (3-Benzyloxy-4-chloro-phenyl)-[3-(3,3-dimethyl-butyl)-pyrrolidin-3-yl]-methanone] | – | – | 363 nM | 1450 nM | –
10 | COC(C)(C)CCC1(C(=O)c2cc(F)c3[nH]ccc3c2)CCNC1 (stereo not shown) [Compound 6] | 1.07 nM | 15.5 nM | 4.79 nM | – | –
11 | CC(C)(C)CCC1(C(=O)c2cc(Cl)c(N)c(C(F)(F)F)c2)CCNC1 (stereo not shown) [Compound 7, (4-Amino-3-chloro-5-trifluoromethyl-phenyl)-[3-(3,3-dimethyl-butyl)-pyrrolidin-3-yl]-methanone] | 38 nM | – | – | 955 nM | IC50 (hNET transporter): 15.8 nM
12 | CC(C)(C)CCC1(C(=O)c2ccc(Cl)c(Oc3ccc(F)cc3)c2)CCNC1 (stereo not shown) [Compound 8, [4-Chloro-3-(4-fluoro-phenoxy)-phenyl]-[3-(3,3-dimethyl-butyl)-pyrrolidin-3-yl]-methanone] | – | – | 77.6 nM | 1410 nM | IC50 (hSERT transporter; [3]): 120 nM
13 | CC(C)(C)CCC1(C(=O)c2ccc(Cl)c(Oc3ccccc3F)c2)CCNC1 (stereo not shown) [Compound 9, [4-Chloro-3-(2-fluoro-phenoxy)-phenyl]-[3-(3,3-dimethyl-butyl)-pyrrolidin-3-yl]-methanone] | – | – | 45.7 nM | 1120 nM | –
14 | CCCC1(C(=O)c2ccc(Cl)c(OCc3ccccc3)c2)CCNC1 (stereo not shown) [Compound 10, (3-Benzyloxy-4-chloro-phenyl)-(3-propyl-pyrrolidin-3-yl)-methanone] | 20.4 nM | – | 1700 nM | – | –
15 | CCCC1(C(=O)c2ccc(Cl)c(OCCC(C)(C)C)c2)CCNC1 (stereo not shown) [Compound 11, [4-Chloro-3-(3,3-dimethyl-butoxy)-phenyl]-(3-propyl-pyrrolidin-3-yl)-methanone] | 52.5 nM | – | 631 nM | 1480 nM | –
16 | CCCC1(C(=O)c2ccc(Cl)c(OCC3CCOCC3)c2)CCNC1 (stereo not shown) [Compound 13, [4-Chloro-3-(tetrahydro-pyran-4-ylmethoxy)-phenyl]-(3-propyl-pyrrolidin-3-yl)-methanone] | – | – | – | – | IC50 (hSERT transporter; [3]): 145 nM
17 | CCCC1(C(=O)c2ccc(Cl)c(OC(F)(F)F)c2)CCNC1 (stereo not shown) [Compound 14, (4-Chloro-3-trifluoromethoxy-phenyl)-(3-propyl-pyrrolidin-3-yl)-methanone] | 2.75 nM | – | 302 nM | – | –
18 | CCCC1(C(=O)c2ccc(Br)c(Oc3ccccc3)c2)CCNC1 (stereo not shown) [Compound 20, (4-Bromo-3-phenoxy-phenyl)-(3-propyl-pyrrolidin-3-yl)-methanone] | 12.6 nM | – | 7.94 nM | – | –
19 | CC[C@@]1(C(=O)c2ccc(Cl)c(Cl)c2)CC[C@@H]2CC[C@H]1N2C [Compound 53, (3,4-Dichloro-phenyl)-((1R,2R,5R)-2-ethyl-8-methyl-8-aza-bicyclo[3.2.1]oct-2-yl)-methanone] | 41.7 nM | 288 nM | – | – | –
20 | CCCC1(C(=O)c2ccc(Cl)c(-c3cccnc3)c2)CCCNC1 (stereo not shown) [Compound 55, (4-Chloro-3-pyridin-3-yl-phenyl)-(3-propyl-piperidin-3-yl)-methanone] | – | – | – | – | IC50 (hSERT transporter; [3]): 245 nM
21 | CCCC1(C(=O)c2ccc(-n3ccnc3)c(Br)c2)CCCNC1 (stereo not shown) [Compound 57, (3-Bromo-4-imidazol-1-yl-phenyl)-(3-propyl-piperidin-3-yl)-methanone] | 91.2 nM | – | – | 4270 nM | –
22 | CCCC1(C(=O)c2ccc(Cl)c(-n3ccnc3)c2)CCCNC1 (stereo not shown) [Compound 58, (4-Chloro-3-imidazol-1-yl-phenyl)-(3-propyl-piperidin-3-yl)-methanone] | 79.4 nM | – | – | 1480 nM | –
23 | CCCC1(C(=O)c2ccc3ccccc3c2)CCNC1 (stereo not shown) [naphthalen-2-yl-(3-propyl-pyrrolidin-3-yl)-methanone] | – | – | – | – | Ki (hSERT transporter; SPA, [3H]-Citalopram, approximate value, read-out: pKi human serotonin transporter (converted)): ~0.151 nM
